According to patent US20250339547A1, “MET BCL-XL INHIBITOR ANTIBODY-DRUG CONJUGATES AND METHODS OF USE THEREOF” (Novartis AG, priority 2022, published 2025):

Key:
Type in all cases: cell-based
H1650 cells [1] = experiment: In vitro activity in H1650 cell line (3D, CTG 120h), Example 12; settings: Homo sapiens, NCI-H1650, 120 h, H1650 3D
Procedure: (§1) H1650 cells were cultivated in RPMI supplemented with 10% heat inactivated fetal bovine serum, penicillin (100 IU/ml), streptomycin (100 μg/ml) and L-glutamine (2 mM). Cells were cultured at 37° C. in a humidified atmosphere containing 5% CO2. Cells were seeded in 96 microwell round bottom plates (96 microwell low attachment plates, Costar reference 7007; 75 μL/well of 125000 cells/mL) and exposed to the mAbs or ADCs for 120h (serially diluted; 9 concentrations each, duplicates). Effects of mAbs or ADCs on cell viability were assessed after 5 days of incubation at 37° C./5% CO2 by quantification of cellular ATP levels using CellTiter-Glo reagent (Promega Ref: G7571) at 75 μL reagent/well. All the conditions were tested in duplicates. Luminescence was quantified on a multipurpose plate reader. IC50s were calculated using standard four-parametric curve fitting. IC50 is defined as the compound concentration at which the CTG signal is reduced to 50% of that measured for the control. Two independent experiments were performed (N1 and N2).
Plating Conditions: EBC-1: 75 μL/well of 60000 cells/mL for 120h in 96-well plate SNU-5: 75 μL/well of 60000 cells/mL for 120h in 96-well plate H1650 (ATOC): 75 μL/well of 125000 cells/mL for 120h in 96 microwell round bottom plates

H1650 cells [2] = experiment: In vitro activity in H1650 cell line (3D, CTG 120h), Example 6; settings: Homo sapiens, NCI-H1650, 120 h, H1650 3D
Procedure: as §1, with “CellTiterGlo” for “CellTiter-Glo reagent (Promega Ref: G7571)”, “N2). IC50 data of each experiment and the arithmetic mean is shown in Table 14 for all the antibodies and ADCs tested. NT=not tested; ND=not determined.” for “N2).”

LOUNH-91 = experiment: In vitro activity in LOUNH-91 cell line (CTG 120h), Example 6; settings: LOU-NH91, 120 h, LOUNH91, CTG 120 h
Procedure: Cell lines were cultured in the media described above at 37° C. in a humidified atmosphere containing 5% CO2. Cells were seeded in 96 well clear bottom plates (96 well clear-bottom, white, Corning reference 3903) and exposed to the mAbs or ADCs for 120h (serially diluted; 9 concentrations each, triplicates). Effects of mAbs or ADCs on cell viability were assessed after 5 days of incubation at 37° C./5% CO2 by quantification of cellular ATP levels using CellTiter-Glo reagent (Promega Ref: G7571) at 75 μL reagent/well. All the conditions were tested in triplicates. Luminescence was quantified on a multipurpose plate reader. IC50s were calculated using standard four-parametric curve fitting. IC50 is defined as the compound concentration at which the CTG signal is reduced to 50% of that measured for the control. Two independent experiments were performed (N1 and N2). IC50 data of each experiment and the arithmetic mean is shown in Table 14 for all the antibodies and ADCs tested.

[3] = test system: pancreatic cancer cell lines; experiment: Pancreatic cancer cell line panel of Example 10 (CTG 120h); settings: pancreatic cancer cell lines of Table 16, single agents
Procedure: Cell lines were cultured in the media described above at 37° C. in a humidified atmosphere containing 5% CO2. […] When in 1:1 combination, both the combining partner (Paclitaxel, Trametinib or Gemcitabine) and the mAb or ADC were serially diluted (9 concentrations each, triplicates). Effect on cell viability was assessed after 5 days of incubation at 37° C./5% CO2 by quantification of cellular ATP levels using CellTiter-Glo reagent (Promega Ref: G7571) at 75 μL reagent/well. All the conditions were tested in triplicates. Luminescence was quantified on a multipurpose plate reader. IC50s were calculated using standard four-parametric curve fitting. […] Two independent experiments were performed (N1 and N2).

IC50 (H1650 cells [1]; N1) [nM]	IC50 (H1650 cells [1]; N2) [nM]	IC50 (H1650 cells [1]; mean) [nM]	IC50 (H1650 cells [2]; mean) [nM]	IC50 (H1650 cells [2]; n = 1) [nM]	IC50 (H1650 cells [2]; n = 2) [nM]	IC50 (LOUNH-91; mean) [nM]	IC50 (LOUNH-91; n = 1) [nM]	IC50 (LOUNH-91; n = 2) [nM]	SMILES	effect on the viability [3]
8.28	5.9	7.09	1.57	1.47	1.66	7.07	6.43	7.71	Cc1c(Nc2nc3ccccc3s2)nnc2c1CCCN2c1ccc(-c2cnn(C[C@]34C[C@]5(C)C[C@](C)(C3)C[C@@](OCCNCCCO)(C5)C4)c2C)c(C(=O)O)n1 [P25, 6-[3-(1,3-benzothiazol-2-ylamino)-4-methyl-6,7-dihydro-5H-pyrido[2,3-c]pyridazin-8-yl]-3-[1-[[3-[2-(3-hydroxypropylamino)ethoxy]-5,7-dimethyl-1-adamantyl]methyl]-5-methyl-pyrazol-4-yl]pyridine-2-carboxylic acid]	
									CC(=O)O[C@H]1C(=O)[C@@]2(C)[C@H]([C@H](OC(=O)c3ccccc3)[C@]3(O)C[C@H](OC(=O)[C@H](O)[C@@H](NC(=O)c4ccccc4)c4ccccc4)C(C)=C1C3(C)C)[C@]1(OC(C)=O)CO[C@@H]1C[C@@H]2O [Paclitaxel, paclitaxel]	induced dose dependent decrease in cell viability with measurable IC50 for most of the cell lines
